ChEMBL document CHEMBL4152224, “The Identification of Potent, Selective, and Orally Available Inhibitors of Ataxia Telangiectasia Mutated (ATM) Kinase: The Discovery of AZD0156 (8-{6-[3-(Dimethylamino)propoxy]pyridin-3-yl}-3-methyl-1-(tetrahydro-2 H-pyran-4-yl)-1,3-dihydro-2 H-imidazo[4,5- c]quinolin-2-one)” (J Med Chem, 2018)
In brackets after ≈: the same amount, converted by molar mass. Activity calls are given as the source filed them. The calls are words filed in the database; no cut-off is given here.

Assays:
[1] = Buffer/octanol partition coefficient, log D of the compound at pH 7.4 by shake flask method; type: physicochemical
[2] = Volume of distribution at steady state in dog; type: ADME, organism-based, Canis lupus familiaris; conditions: in vivo, read-out: Vdss
[3] = target: Voltage-gated inwardly rectifying potassium channel KCNH2 (Homo sapiens, UniProt Q12809); experiment: Inhibition of human ERG by electrophysiology assay
[4] = Oral bioavailability in dog; type: ADME, organism-based, Canis lupus familiaris; conditions: in vivo
in vivo [5] = conditions: dog
[6] = Intrinsic clearance in human hepatocytes assessed per million cells
in vivo [7] = conditions: dog; remark: listed apart in the source
[8] = Intrinsic clearance in rat hepatocytes assessed per million cells
in vivo [9] = conditions: rat
[10] = Dissociation constant, pKa of the compound; type: physicochemical
in vivo [11] = conditions: rat; remark: listed apart in the source
[12] = Oral bioavailability in rat; type: ADME, organism-based; conditions: in vivo
[13] = Apparent permeability across apical to basolateral side in MDCK cells overexpressing MDR1; type: ADME, cell-based, Canis lupus familiaris; conditions: dog
[14] = Thermodynamic solubility of the compound in 0.1M aqueous phosphate buffer at pH 7.4 after 24 hrs by LC-UV analysis; type: physicochemical; conditions: read-out: Therm_solubility
[15] = Volume of distribution at steady state in rat; type: ADME, organism-based; conditions: in vivo, read-out: Vdss
[16] = target: Serine/threonine-protein kinase ATR (Homo sapiens, UniProt Q13535)
in vitro = conditions: dog, MDCK-MDR1
Description: Efflux ratio of apparent permeability across basolateral to apical over apical to basolateral side in MDCK cells overexpressing MDR1

[17] = Cmax in patient with solid tumor at 30 mg, po bid by LC-MS/MS analysis; type: ADME, organism-based; parameters: dose 30 mg, route oral; conditions: human, in vivo
[18] = AUC (0 to 12 hrs) in patient with solid tumor at 120 mg, po bid by LC-MS/MS analysis; type: ADME, organism-based; parameters: dose 120 mg, time < 12 hr, route oral; conditions: human, in vivo
SW-620 [19] = experiment: Potentiation of irinotecan-induced tumor regression against human SW620 cells xenografted in immunocompromised mouse at 20 mg/kg, po qd administered on days 2 to 4 of weekly cycle; type: functional, organism-based
[20] = Solubility of the compound in simulated gastric fluid; type: physicochemical
Cytochrome P450 2D6 = Cytochrome P450 2D6 (Homo sapiens, UniProt P10635); experiment: Inhibition of human CYP2D6; type: ADME
[21] = Solubility of the compound in FaSSIF; type: physicochemical
Cytochrome P450 2C9 = Cytochrome P450 2C9 (Homo sapiens, UniProt P11712); experiment: Inhibition of human CYP2C9; type: ADME
[22] = AUC (0 to 12 hrs) in patient with solid tumor at 15 mg, po bid by LC-MS/MS analysis; type: ADME, organism-based; parameters: time < 12 hr, dose 15 mg, route oral; conditions: human, in vivo
[23] = Tmax in patient with solid tumor at 15 mg, po bid by LC-MS/MS analysis; type: ADME, organism-based; conditions: human, in vivo
[24] = Tmax in patient with solid tumor at 60 mg, po bid by LC-MS/MS analysis; type: ADME, organism-based; conditions: human, in vivo
[25] = AUC (0 to 12 hrs) in patient with solid tumor at 60 mg, po bid by LC-MS/MS analysis; type: ADME, organism-based; parameters: dose 60 mg, time < 12 hr, route oral; conditions: human, in vivo
[26] = Cmax in patient with solid tumor at 120 mg, po bid by LC-MS/MS analysis; type: ADME, organism-based; parameters: dose 120 mg, route oral; conditions: human, in vivo
SW-620 [27] = experiment: Antitumor activity against human SW620 cells xenografted in immunocompromised mouse assessed as tumor regression at 20 mg/kg, po qd administered on days 2 to 4 of weekly cycle; type: functional, organism-based
[28] = target: Phosphatidylinositol 4,5-bisphosphate 3-kinase catalytic subunit gamma isoform (Homo sapiens, UniProt P48736); experiment: Inhibition of human PI3Kgamma (S144 to A1102 residues) expressed in mammalian expression system
Cytochrome P450 2C19 = Cytochrome P450 2C19 (Homo sapiens, UniProt P33261); experiment: Inhibition of human CYP2C19; type: ADME
Mus musculus [29] = experiment: Toxicity in immunocompromised mouse xenografted with human HBCx-10 cells at 5 mg/kg, po qd administered on days 1 to 3 of weekly cycle in presence of olaparib; type: organism-based; conditions: in vivo
[30] = Tmax in patient with solid tumor at 30 mg, po bid by LC-MS/MS analysis; type: ADME, organism-based; conditions: human, in vivo
Homo sapiens = experiment: Potentiation of […]-induced tumor regression against human HBCx-10 cells xenografted in immunocompromised mouse at 5 mg/kg, po qd administered on days 1 to 3 of weekly cycle; type: functional, organism-based
[31] = Fraction unbound in rat plasma
[32] = Apparent permeability across apical to basolateral side in human Caco2 cells at pH 6.5; type: ADME, cell-based; conditions: Caco-2, pH 6.5
Mus musculus [33] = experiment: Toxicity in immunocompromised mouse xenografted with human SW620 cells at 20 mg/kg, po qd administered on days 2 to 4 of weekly cycle in presence of irinotecan; type: organism-based; conditions: in vivo
Cytochrome P450 1A2 = target: T1, Cytochrome P450 1A2 (Homo sapiens, UniProt P05177); experiment: Inhibition of human CYP1A2; type: ADME
T1 sequence (P05177 whole entry): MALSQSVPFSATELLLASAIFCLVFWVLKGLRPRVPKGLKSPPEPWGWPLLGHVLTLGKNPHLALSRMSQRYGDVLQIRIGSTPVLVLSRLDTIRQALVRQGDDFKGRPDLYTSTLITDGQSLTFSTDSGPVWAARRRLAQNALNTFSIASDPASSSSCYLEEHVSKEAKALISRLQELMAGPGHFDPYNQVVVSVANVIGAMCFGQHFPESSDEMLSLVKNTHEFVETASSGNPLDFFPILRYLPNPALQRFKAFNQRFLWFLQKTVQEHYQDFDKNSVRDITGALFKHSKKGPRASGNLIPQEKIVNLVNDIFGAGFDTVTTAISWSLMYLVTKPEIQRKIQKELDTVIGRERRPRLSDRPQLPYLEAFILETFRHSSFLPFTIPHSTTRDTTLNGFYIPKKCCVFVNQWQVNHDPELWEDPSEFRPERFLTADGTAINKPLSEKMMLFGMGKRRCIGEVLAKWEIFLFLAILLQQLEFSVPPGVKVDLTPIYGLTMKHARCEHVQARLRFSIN

[34] = Solubility of the compound in phosphate buffer at pH 6.5; type: physicochemical
[35] = Tmax in patient with solid tumor at 120 mg, po bid by LC-MS/MS analysis; type: ADME, organism-based; conditions: human, in vivo
[36] = Cmax in patient with solid tumor at 15 mg, po bid by LC-MS/MS analysis; type: ADME, organism-based; parameters: dose 15 mg, route oral; conditions: human, in vivo
[37] = AUC (0 to 12 hrs) in patient with solid tumor at 30 mg, po bid by LC-MS/MS analysis; type: ADME, organism-based; parameters: time < 12 hr, dose 30 mg, route oral; conditions: human, in vivo
[38] = target: T2, Phosphatidylinositol 4,5-bisphosphate 3-kinase catalytic subunit delta isoform (Homo sapiens, UniProt O00329); experiment: Inhibition of human PI3Kdelta (R108 to Q1044 residues) expressed in mammalian expression system
T2 sequence (O00329 whole entry): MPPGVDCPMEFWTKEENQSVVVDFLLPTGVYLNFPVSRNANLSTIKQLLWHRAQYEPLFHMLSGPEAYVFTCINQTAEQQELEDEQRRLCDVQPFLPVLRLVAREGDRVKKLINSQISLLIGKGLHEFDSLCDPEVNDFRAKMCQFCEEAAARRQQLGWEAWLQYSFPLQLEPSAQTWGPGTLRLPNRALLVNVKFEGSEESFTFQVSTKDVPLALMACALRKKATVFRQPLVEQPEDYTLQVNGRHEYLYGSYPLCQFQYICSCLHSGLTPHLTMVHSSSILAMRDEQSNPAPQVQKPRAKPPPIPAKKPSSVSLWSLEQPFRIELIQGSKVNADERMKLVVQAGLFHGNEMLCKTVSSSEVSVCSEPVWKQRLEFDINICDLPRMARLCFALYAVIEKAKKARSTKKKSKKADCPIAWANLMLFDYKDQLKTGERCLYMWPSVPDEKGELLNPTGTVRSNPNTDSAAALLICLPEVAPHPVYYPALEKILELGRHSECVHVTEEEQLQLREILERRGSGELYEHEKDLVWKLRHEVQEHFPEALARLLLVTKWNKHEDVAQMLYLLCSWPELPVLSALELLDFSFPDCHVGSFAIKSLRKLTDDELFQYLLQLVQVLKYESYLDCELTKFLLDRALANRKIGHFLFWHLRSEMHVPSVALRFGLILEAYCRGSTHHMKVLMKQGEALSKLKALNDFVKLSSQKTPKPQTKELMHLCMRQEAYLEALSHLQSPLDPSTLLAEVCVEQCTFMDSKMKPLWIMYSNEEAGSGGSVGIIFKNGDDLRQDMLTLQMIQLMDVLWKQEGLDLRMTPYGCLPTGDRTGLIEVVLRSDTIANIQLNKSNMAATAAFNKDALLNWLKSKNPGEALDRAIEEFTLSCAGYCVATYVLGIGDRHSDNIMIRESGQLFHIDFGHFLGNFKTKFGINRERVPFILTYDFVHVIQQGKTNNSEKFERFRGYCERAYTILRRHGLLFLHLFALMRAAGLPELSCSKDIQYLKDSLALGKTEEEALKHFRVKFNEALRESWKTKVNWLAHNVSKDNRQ

[39] = Apparent permeability across apical to basolateral side in human Caco2 cells; type: ADME, cell-based; conditions: Caco-2
[40] = target: Serine/threonine-protein kinase mTOR (Homo sapiens) (UniProt P42345); experiment: Inhibition of human m-TOR (L1382 to W2549 residues) expressed in mammalian expression system at 1 uM relative to control
[41] = Cmax in patient with solid tumor at 60 mg, po bid by LC-MS/MS analysis; type: ADME, organism-based; parameters: dose 60 mg, route oral; conditions: human, in vivo
Cytochrome P450 3A4 = Cytochrome P450 3A4 (Homo sapiens, UniProt P08684); experiment: Inhibition of human CYP3A4; type: ADME
[42] = target: Phosphatidylinositol 4,5-bisphosphate 3-kinase catalytic subunit beta isoform (Homo sapiens, UniProt P42338); experiment: Inhibition of human PI3Kbeta (P118 to S1070 residues) expressed in mammalian expression system
[43] = target: Serine-protein kinase ATM (Homo sapiens, UniProt Q13315)

Sequence of Serine/threonine-protein kinase ATR (Q13535 whole entry): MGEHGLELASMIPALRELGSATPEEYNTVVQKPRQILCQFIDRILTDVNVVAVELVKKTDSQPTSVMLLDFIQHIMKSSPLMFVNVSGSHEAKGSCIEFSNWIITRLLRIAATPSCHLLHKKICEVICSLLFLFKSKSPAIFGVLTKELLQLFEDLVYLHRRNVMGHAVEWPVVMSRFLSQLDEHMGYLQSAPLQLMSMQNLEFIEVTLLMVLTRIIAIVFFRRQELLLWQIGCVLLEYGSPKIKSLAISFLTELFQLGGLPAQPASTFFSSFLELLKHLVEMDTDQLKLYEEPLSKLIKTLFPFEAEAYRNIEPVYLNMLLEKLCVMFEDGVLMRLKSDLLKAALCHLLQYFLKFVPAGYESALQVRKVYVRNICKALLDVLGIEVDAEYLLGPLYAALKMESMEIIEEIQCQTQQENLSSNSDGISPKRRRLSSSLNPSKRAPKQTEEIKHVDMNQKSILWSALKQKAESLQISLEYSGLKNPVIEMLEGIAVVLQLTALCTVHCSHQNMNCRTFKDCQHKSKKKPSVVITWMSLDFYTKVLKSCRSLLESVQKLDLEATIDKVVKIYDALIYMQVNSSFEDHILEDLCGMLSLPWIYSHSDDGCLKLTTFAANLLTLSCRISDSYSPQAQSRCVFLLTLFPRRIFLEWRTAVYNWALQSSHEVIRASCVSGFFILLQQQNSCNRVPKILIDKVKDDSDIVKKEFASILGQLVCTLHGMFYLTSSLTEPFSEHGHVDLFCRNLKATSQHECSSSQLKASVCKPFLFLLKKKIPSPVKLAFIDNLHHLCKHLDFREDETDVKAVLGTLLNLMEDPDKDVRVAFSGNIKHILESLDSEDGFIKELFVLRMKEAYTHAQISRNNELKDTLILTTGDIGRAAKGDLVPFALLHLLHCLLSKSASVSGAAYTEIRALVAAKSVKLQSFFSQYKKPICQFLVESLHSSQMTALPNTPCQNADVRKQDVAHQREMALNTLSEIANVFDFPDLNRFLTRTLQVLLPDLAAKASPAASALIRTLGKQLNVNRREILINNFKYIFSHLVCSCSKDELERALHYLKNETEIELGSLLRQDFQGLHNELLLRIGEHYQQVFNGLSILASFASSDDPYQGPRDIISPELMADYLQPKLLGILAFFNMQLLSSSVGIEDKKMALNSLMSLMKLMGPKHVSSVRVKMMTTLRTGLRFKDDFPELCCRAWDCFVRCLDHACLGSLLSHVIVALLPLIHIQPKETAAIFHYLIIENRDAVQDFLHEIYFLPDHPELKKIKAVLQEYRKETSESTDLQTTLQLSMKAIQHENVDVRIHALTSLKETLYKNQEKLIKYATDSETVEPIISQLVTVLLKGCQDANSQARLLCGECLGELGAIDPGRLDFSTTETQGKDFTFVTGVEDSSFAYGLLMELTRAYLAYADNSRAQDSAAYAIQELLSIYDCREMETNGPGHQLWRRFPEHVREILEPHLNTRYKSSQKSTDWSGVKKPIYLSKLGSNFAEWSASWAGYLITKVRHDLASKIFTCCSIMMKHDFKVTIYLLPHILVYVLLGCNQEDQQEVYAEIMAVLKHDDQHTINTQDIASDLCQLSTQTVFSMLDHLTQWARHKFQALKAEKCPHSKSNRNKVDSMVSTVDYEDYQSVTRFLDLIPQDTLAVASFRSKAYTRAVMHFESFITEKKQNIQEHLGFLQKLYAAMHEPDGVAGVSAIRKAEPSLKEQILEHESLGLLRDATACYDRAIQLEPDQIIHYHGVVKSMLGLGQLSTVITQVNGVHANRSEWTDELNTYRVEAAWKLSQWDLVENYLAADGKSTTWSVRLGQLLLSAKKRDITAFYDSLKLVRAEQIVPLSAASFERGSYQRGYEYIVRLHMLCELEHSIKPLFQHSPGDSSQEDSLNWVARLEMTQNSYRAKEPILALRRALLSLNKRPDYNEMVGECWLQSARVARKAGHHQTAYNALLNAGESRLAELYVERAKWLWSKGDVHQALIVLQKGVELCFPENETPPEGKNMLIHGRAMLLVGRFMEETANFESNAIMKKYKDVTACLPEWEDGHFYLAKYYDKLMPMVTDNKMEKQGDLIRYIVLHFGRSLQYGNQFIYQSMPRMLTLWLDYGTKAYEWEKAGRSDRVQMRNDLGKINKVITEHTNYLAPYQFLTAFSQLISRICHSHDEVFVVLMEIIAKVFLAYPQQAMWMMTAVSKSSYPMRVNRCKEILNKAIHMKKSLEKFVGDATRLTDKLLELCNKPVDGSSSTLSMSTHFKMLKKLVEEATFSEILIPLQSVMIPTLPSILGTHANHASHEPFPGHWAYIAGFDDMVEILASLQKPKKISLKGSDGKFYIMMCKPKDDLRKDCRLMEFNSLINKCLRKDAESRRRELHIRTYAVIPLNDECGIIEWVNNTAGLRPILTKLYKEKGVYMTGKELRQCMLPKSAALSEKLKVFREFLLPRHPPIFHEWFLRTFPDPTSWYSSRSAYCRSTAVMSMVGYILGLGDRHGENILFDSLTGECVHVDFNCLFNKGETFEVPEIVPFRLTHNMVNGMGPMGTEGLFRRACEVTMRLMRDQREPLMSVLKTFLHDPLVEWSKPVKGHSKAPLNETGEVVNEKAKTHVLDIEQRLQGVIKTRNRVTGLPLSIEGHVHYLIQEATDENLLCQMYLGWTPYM
Sequence of Cytochrome P450 2C9 (P11712 whole entry): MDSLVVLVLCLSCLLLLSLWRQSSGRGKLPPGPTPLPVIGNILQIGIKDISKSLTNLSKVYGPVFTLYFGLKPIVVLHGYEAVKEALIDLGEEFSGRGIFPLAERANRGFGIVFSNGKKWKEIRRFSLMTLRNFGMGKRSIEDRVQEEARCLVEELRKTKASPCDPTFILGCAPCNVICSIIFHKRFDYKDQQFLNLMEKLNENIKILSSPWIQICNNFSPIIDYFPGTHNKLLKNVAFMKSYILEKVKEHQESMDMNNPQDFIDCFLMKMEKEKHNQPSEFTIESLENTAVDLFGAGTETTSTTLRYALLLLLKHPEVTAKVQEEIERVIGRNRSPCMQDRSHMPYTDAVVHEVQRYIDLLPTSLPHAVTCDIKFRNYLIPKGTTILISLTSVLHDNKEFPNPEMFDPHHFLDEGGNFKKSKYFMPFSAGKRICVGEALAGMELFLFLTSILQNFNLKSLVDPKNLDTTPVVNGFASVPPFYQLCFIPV
Sequence of Cytochrome P450 2C19 (P33261 whole entry): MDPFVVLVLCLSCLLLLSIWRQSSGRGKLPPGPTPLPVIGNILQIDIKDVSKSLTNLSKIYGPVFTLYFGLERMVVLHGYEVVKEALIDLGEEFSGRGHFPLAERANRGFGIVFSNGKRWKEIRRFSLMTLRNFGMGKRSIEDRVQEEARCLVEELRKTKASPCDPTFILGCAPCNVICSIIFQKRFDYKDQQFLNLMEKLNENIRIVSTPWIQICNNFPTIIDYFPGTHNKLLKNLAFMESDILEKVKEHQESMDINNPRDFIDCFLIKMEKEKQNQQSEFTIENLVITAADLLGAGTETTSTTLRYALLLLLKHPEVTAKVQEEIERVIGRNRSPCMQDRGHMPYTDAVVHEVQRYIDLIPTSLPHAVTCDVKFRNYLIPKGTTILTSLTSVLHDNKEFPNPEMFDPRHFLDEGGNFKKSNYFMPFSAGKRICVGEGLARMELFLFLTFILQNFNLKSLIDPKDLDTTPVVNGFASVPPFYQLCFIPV
Sequence of Phosphatidylinositol 4,5-bisphosphate 3-kinase catalytic subunit gamma isoform (P48736 whole entry, the tested form may be a part, canonical isoform): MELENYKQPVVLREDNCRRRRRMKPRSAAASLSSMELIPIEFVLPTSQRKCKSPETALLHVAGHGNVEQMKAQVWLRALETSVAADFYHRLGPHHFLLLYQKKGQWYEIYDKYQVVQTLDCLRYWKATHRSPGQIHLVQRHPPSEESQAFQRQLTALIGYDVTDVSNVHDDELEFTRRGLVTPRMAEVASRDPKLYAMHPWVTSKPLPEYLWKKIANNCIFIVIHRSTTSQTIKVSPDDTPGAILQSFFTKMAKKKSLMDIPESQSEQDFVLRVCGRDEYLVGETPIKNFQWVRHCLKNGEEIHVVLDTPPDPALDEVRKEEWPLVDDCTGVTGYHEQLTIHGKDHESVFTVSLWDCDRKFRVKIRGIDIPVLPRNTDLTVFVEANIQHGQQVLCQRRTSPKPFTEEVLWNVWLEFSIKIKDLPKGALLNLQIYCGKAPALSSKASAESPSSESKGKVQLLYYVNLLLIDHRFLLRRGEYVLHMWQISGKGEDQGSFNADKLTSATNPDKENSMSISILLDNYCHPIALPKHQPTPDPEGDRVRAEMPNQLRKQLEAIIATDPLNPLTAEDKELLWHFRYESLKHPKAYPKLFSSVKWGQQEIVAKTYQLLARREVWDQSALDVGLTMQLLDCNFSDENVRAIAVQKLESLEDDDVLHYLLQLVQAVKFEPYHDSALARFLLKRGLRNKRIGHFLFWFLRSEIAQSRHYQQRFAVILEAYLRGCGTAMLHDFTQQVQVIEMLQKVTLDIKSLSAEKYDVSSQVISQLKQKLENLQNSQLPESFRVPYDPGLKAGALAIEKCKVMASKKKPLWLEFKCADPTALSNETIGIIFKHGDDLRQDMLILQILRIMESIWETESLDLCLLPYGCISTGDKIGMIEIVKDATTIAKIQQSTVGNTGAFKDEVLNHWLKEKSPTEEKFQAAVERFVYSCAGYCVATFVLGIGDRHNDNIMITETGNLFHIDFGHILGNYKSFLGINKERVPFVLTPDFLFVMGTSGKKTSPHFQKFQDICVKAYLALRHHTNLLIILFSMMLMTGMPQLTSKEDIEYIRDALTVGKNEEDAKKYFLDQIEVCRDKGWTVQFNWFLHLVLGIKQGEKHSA

With `CO[C@H]1C[C@@H](n2c(=O)n(C)c3cnc4ccc(-c5ccc(OCCCN(C)C)nc5)cc4c32)C1` the logD [1] was 1.6, the Vd [2] was 11 L/kg and the IC50 [3] was > 33 µM. For the same compound, the bioavailability [4] was 65%, the clearance (in vivo [5]) was 27.6 mL/min/kg and the hepatocyte CLint [6] was 8.7 µL/min/1e6 cells. It also gave a half-life (in vivo [7]) of 5 h, a hepatocyte CLint [8] of 5.1 µL/min/1e6 cells and a clearance (in vivo [9]) of 19.5 mL/min/kg. The pKa [10] was 9.5, the half-life (in vivo [11]) was 5 h and the bioavailability [12] was 50%. The Papp A→B [13] was 7.8 ×10⁻⁶ cm/s, the solubility thermodynamic at 24 h [14] was 540 µM (≈ 249 µg/mL) and the Vd [15] was 5.7 L/kg. The IC50 [16] was > 30 µM and the efflux ratio (in vitro) was 3.
`CN(C)CCCOc1ccc(-c2ccc3ncc4c(c3c2)n(C2CCOCC2)c(=O)n4C)cn1` gave a logD [1] of 1.5, a Vd [2] of 17.6 L/kg and a Cmax [17] of 17.5 ng/mL. For the same compound, the AUC at 12 h [18] was 330 ng·h/mL, the bioavailability [4] was 54% and the Activity (SW-620 [19]) was “Active”. The solubility [20] was > 5000 µg/mL, the IC50 (Cytochrome P450 2D6) was > 30 µM and the solubility [21] was > 5000 µg/mL. The IC50 (Cytochrome P450 2C9) was > 30 µM, the AUC at 12 h [22] was 40.4 ng·h/mL and the Tmax [23] was 2 h. The Tmax [24] was 2.5 h, the AUC at 12 h [25] was 206 ng·h/mL and the pKa [10] was 9.6. The Cmax [26] was 58.8 ng/mL, the Activity (SW-620 [27]) was “inactive” and the IC50 [28] was 1.1 µM. The IC50 (Cytochrome P450 2C19) was > 30 µM, the Activity (Mus musculus [29]) was “Non-Toxic” and the Tmax [30] was 2 h. The Activity (Homo sapiens) was “Active”, the fraction unbound [31] was 0.11 and the bioavailability [12] was 57%. The Papp A→B [32] was 19 ×10⁻⁶ cm/s, the Activity (Mus musculus [33]) was “Non-Toxic” and the Papp A→B [13] was 6.6 ×10⁻⁶ cm/s. For the same compound, the IC50 (Cytochrome P450 1A2) was > 30 µM, the solubility [34] was > 5000 µg/mL and the solubility thermodynamic at 24 h [14] was > 800 µM. It also gave a Tmax [35] of 2.5 h, a Cmax [36] of 6.67 ng/mL and an AUC at 12 h [37] of 105 ng·h/mL. It also gave an IC50 [38] of 0.27 µM, a Papp A→B [39] of 5.6 ×10⁻⁶ cm/s and an inhibition [40] of 93%. For the same compound, the Cmax [41] was 39.6 ng/mL, the IC50 (Cytochrome P450 3A4) was > 30 µM and the Vd [15] was 4.3 L/kg. For the same compound, the IC50 [42] was 1.8 µM.
With `CO[C@H]1C[C@@H](n2c(=O)n(C)c3cnc4ccc(-c5ccc(OCCCN6CCC(O)CC6)nc5)cc4c32)C1` the logD [1] was 0.6, the hepatocyte CLint [8] was < 1 µL/min/1e6 cells and the pKa [10] was 8.4. For the same compound, the IC50 [43] was 27 µM, the solubility thermodynamic at 24 h [14] was 750 µM (≈ 388 µg/mL) and the IC50 [16] was > 30 µM.
With `NC(=O)c1cnc2ccc(-c3cccnc3)cc2c1NC1CCOCC1` the hepatocyte CLint [6] was < 4 µL/min/1e6 cells, the Papp A→B [13] was 4.8 ×10⁻⁶ cm/s and the solubility thermodynamic at 24 h [14] was > 610 µM. The Papp A→B [39] was 15 ×10⁻⁶ cm/s.
